Data set [1] deals with T1, KRAS^G12C (Homo sapiens, UniProt P01116, G12C). The data set can be described thus: MANT-GDP nucleotide exchange assay (SOS1, GppNHp). It counts as biochemical. On the procedure:
The reaction was stopped by adding MgCl2 to a final concentration of 10 mM, then incubated at 20 °C for 30 min. The unbound MANT-GDP was removed using the NAP-5 column equilibrated with nucleotide exchange buffer (40 mM HEPES-NaOH (pH 7.5), 50 mM NaCl, 10 mM MgCl2, 2 mM Dithiothreitol DTT).

The next data set relates to H358. The data set can be described thus: Cell proliferation assay (MTT), KRAS^G12C expressing cell. The conditions noted are these: Homo sapiens, NCI-H358, 72 h, read-out: IC50 anti-proliferative activity.
The test system of another data set is MiaPaca2. The data set is described as above. The conditions noted are these: Homo sapiens, MIA PaCa-2, 72 h, read-out: IC50 anti-proliferative activity.
Another data set deals with H1792. The data set is described as above. The conditions noted are these: Homo sapiens, NCI-H1792, 72 h, read-out: IC50 anti-proliferative activity.
Another data set has as its target KRAS^wt (Homo sapiens, UniProt P01116). In words: MANT-GDP nucleotide exchange assay against wild type.
Data set [2] is described as follows: HPLC-based GSH reactivity and stability assay. It counts as physicochemical. The conditions noted are these: for half-life at 250 μM: 5 mM glutathione, PBS pH 7.4, corrected for aqueous degradation, mean ± SD, n = 2, read-out: t1/2 GSH (converted); for experimental ΔG^#(GSH): free energy barrier calculated from t1/2 and GSH^– concentration. The protocol:
The cysteine reactivity of the compounds was first assessed in a surrogate kinetic assay.[25],[26] Glutathione (GSH), a cysteine surrogate, was used in a large excess to ensure quasi-first-order reaction kinetics.
The sample was eluted with gradient elution using eluent A (0.1% FA in H2O) and eluent B (0.1% FA in ACN). The column temperature was always kept at 30 °C; the injection volume was 20 μL, the flow rate was set to 1.5 mL/min, and a Reprospher C18 (5 μm, 100 mm × 3 mm) column was used along with the following gradient. […] The AUC (area under the curve) values were determined via the integration of HPLC chromatograms and then corrected with the internal standard. The fragments’ AUC values were subjected to ordinary least-squares (OLS) linear regression, and to compute the important parameters (kinetic rate constant and half-life time), an Excel sheet was applied. The data are expressed as means of duplicate determinations. The kinetic rate constant for the degradation and corrected GSH reactivity were calculated as follows. The reaction half-life for pseudo-first-order reactions (t1/2) is ln 2/k, where k is the reaction rate. In the case of competing reactions (reaction with GSH and degradation), the apparent reaction rate is kapp = kdeg + kGSH. When half-lives are measured experimentally, t1/2(app) = ln 2/(kapp) = ln 2/(kdeg + kGSH). In our case, the corrected kdeg and kapp (regarding blank and GSH-containing samples, respectively) can be calculated by the linear regression of the measured kinetic data points. The corrected kGSH is calculated as kapp – kdeg, and finally, the half-life is determined using the equation t1/2 = ln 2/k.

Data set [3] addresses T1, KRAS^G12C. In words: LC-MS occupancy measurements (KI and kinact determination). Format: binding. The conditions noted are these: for kobs: 5 μM KRASG12C, duplicated experiments; for experimental ΔG^# (KRAS^G12C): free energy barrier calculated from kinact; for experimental ΔGbind: obtained as RT ln(KI) with KI in M units.
Data set [4] concerns the target KRAS^G12C. The conditions noted are these: published value ref 46; cited from earlier work.
The mark [5] stands for this setting: KRAS^G12C, 60 min incubation with inhibitor, mean ± SD, n = 3, read-out: IC50 inhibition of nucleotide exchange.
[6] abbreviates: PBS buffer with 5 mM glutathione (GSH).
The mark [7] stands for this setting: fit of kobs vs concentration, MS occupancy, mean ± SD, n = 2.
Where [8] appears, read: fit of kobs vs concentration, MS occupancy, mean ± SD, n = 2, read-out: KI.

The structures appear in SMILES notation. Where two headings read alike, the source gives them in different places.

Method for KRAS^wt: In the experiments, we used the GTP analogue, GppNHp, which cannot be hydrolyzed by Ras.
After the incubation, the MANT-GDP KRAS-inhibitor mixtures were loaded into a black 384-well microplate in the presence or absence of the different inhibitor molecules in various concentrations. The nucleotide exchange reaction was initiated by adding a 100-fold molar excess of GppNHp (catalog no.: G0635, Sigma-Aldrich), a nonhydrolyzable GTP analog, and the SOS1 exchange domain (catalog no.: GE02, Cytoskeleton, Inc.) protein in 0.2 μM final concentration. The change in fluorescence intensity was measured every 30 s in RT for 60 min on an EnvSpire plate reader (PerkinElmer, Inc.). The measured values were fitted to a single exponential function by using GraphPad Prism 10 software. The derived rates were normalized to the RAS-SOS1 minus RAS-only samples from which the IC50 values were calculated from three independent experiments with each inhibitor using GraphPad Prism 10 software.

`C=CC(=O)N1CCN(c2ncnc3cc(-c4c(O)cccc4F)c(Cl)cc23)CC1` [1a, 1-(4-(6-Chloro-7-(2-fluoro-6-hydroxyphenyl)quinazolin-4-yl)piperazin-1-yl)prop-2-en-1-one]: the IC50 turned out to be 0.827 ± 0.137 µM at KRAS^G12C [1] (setting [5]), 2.3 µM with H358, 1.8 µM in the data set on MiaPaca2 and 16.2 µM in the data set with H1792.
As to `C=CC(=O)N1CCN(c2nc(OCC3CCCN3C)nc3cc(-c4c(O)cccc4F)c(Cl)cc23)CC1` (centres unmarked) [1b, 1-(4-(6-Chloro-7-(2-fluoro-6-hydroxyphenyl)-2-((1-methylpyrrolidin-2-yl)methoxy)quinazolin-4-yl)piperazin-1-yl)prop-2-en-1-one], the IC50 came to 0.52 ± 0.108 µM at KRAS^G12C [1] (setting [5]); 177 µM at KRAS^wt; 1.1 µM in the data set on H358; 0.53 µM with MiaPaca2; 30.1 µM with H1792.
For `O=C(CCl)N1CCN(c2ncnc3cc(-c4c(O)cccc4F)c(Cl)cc23)CC1` [2a, 2-Chloro-1-{4-[6-chloro-7-(2-fluoro-6-hydroxyphenyl)-quinazolin-4-il]piperazine-1-yl}ethane-1-one], the IC50 at KRAS^G12C [1] (setting [5]) turned out to be 0.305 ± 0.04 µM; in the data set with H358, 2.7 µM; in the data set with MiaPaca2, 3.1 µM; with H1792 it was 2.9 µM.
The like results for `CN1CCCC1COc1nc(N2CCN(C(=O)CCl)CC2)c2cc(Cl)c(-c3c(O)cccc3F)cc2n1` (centres unmarked) [2b, 2-Chloro-1-(4-(6-chloro-7-(2-fluoro-6-hydroxyphenyl)-2-((1-methylpyrrolidin-2-yl)methoxy)quinazolin-4-yl)piperazin-1-yl)ethan-1-one] were, in that order, 0.642 ± 0.115 µM, 1.8 µM, 3.2 µM and 1.8 µM.
Take `O=C(N1CCN(c2ncnc3cc(-c4c(O)cccc4F)c(Cl)cc23)CC1)n1ccnc1` [3a, (4-(6-Chloro-7-(2-fluoro-6-hydroxyphenyl)quinazolin-4-yl)piperazin-1-yl)(1H-imidazol-1-yl)methanone]: the IC50 was 67.4 ± 11.3 µM at KRAS^G12C [1] (setting [5]), 27.4 µM with H358, 20.4 µM with MiaPaca2 and 17.9 µM in the data set with H1792. Further, the half-life at 250 μM in data set [2] (setting [6]) was 35 ± 11 h. The “experimental ΔG^#(GSH)” value in data set [2] is given as 19.6 ± 0.2 kcal/mol. Moreover, the kinact/KI on KRAS^G12C [3] was found to be 9.8 ± 4.7 M⁻¹ s⁻¹. Moreover, the kobs at KRAS^G12C [3] (20 μM inhibitor) stood at 0.00014 ± 0.00003 s⁻¹; on KRAS^G12C [3] (40 μM inhibitor) it was 0.00021 ± 0.00005 s⁻¹; on KRAS^G12C [3] (80 μM inhibitor), 0.00033 ± 0.00004 s⁻¹; on KRAS^G12C [3] (160 μM inhibitor) it was 0.00033 ± 0.00006 s⁻¹. Also, on KRAS^G12C [3] (setting [7]), the kinact is on record as 0.4 ± 0.1 0.001 s^–1. In addition, the Ki at KRAS^G12C [3] (setting [8]) was 40.9 ± 16.7 µM. For the same compound, the “experimental ΔG^# (KRAS^G12C)” value on KRAS^G12C [3] was 22.0 ± 0.2 kcal/mol. For the same compound, the “experimental ΔGbind” value at KRAS^G12C [3] is “–6.0 ± 0.4 kcal/mol”.
`CN1CCCC1COc1nc(N2CCN(C(=O)n3ccnc3)CC2)c2cc(Cl)c(-c3c(O)cccc3F)cc2n1` (centres unmarked) [3b, (4-(6-Chloro-7-(2-fluoro-6-hydroxyphenyl)-2-((1-methylpyrrolidin-2-yl)methoxy)quinazolin-4-yl)piperazin-1-yl)(1H-imidazol-1-yl)methanone]: the IC50 on KRAS^G12C [1] (setting [5]) was 243 ± 52.4 µM; in the data set with H358, 9.9 µM; in the data set with MiaPaca2, 8.8 µM; with H1792, 17.7 µM. The half-life at 250 μM in data set [2] (setting [6]) was 40 ± 18 h. The “experimental ΔG^#(GSH)” value in data set [2] is on record as 19.7 ± 0.3 kcal/mol. For the same compound, the kinact/KI on KRAS^G12C [3] is 3.1 ± 0.7 M⁻¹ s⁻¹. In addition, the kobs on KRAS^G12C [3] (20 μM inhibitor) is 0.00005 ± 0.00001 s⁻¹; at KRAS^G12C [3] (40 μM inhibitor) it was 0.0006 ± 0.00001 s⁻¹; at KRAS^G12C [3] (80 μM inhibitor), 0.00009 ± 0.00001 s⁻¹; on KRAS^G12C [3] (160 μM inhibitor), 0.00010 ± 0.00001 s⁻¹. Besides, on KRAS^G12C [3] (setting [7]), the kinact was 0.13 ± 0.01 0.001 s^–1. The Ki at KRAS^G12C [3] (setting [8]) amounted to 42.2 ± 9.9 µM. Further, on KRAS^G12C [3], the “experimental ΔG^# (KRAS^G12C)” value is 22.7 ± 0.0 kcal/mol. Also, the “experimental ΔGbind” value on KRAS^G12C [3] is recorded as “–6.0 ± 0.1 kcal/mol”.
Consider `O=C(C1CN1)N1CCN(c2ncnc3cc(-c4c(O)cccc4F)c(Cl)cc23)CC1` (centres unmarked) [4a, Aziridin-2-yl(4-(6-chloro-7-(2-fluoro-6-hydroxyphenyl)quinazolin-4-yl)piperazin-1-yl)methanone], for which the IC50 against KRAS^G12C [1] worked out at 198 ± 39 µM; with H358, 27.1 µM; with MiaPaca2 it was 19.8 µM; in the data set on H1792, 22.6 µM. In addition, in data set [2] (buffer), the half-life at 250 μM is above 72 h. Also, the “experimental ΔG^#(GSH)” value in data set [2] is recorded as above 20.1 kcal/mol. Besides, at KRAS^G12C [3], the Ki was 22.2 ± 1.8 µM. Also, the kobs at KRAS^G12C [3] (20 μM inhibitor) is 0.00004 ± 0.00001 s⁻¹; on KRAS^G12C [3] (40 μM inhibitor), 0.0006 ± 0.00001 s⁻¹; on KRAS^G12C [3] (80 μM inhibitor) it was 0.00007 ± 0.00001 s⁻¹; at KRAS^G12C [3] (160 μM inhibitor), 0.00008 ± 0.00001 s⁻¹. At KRAS^G12C [3], the “experimental ΔG^# (KRAS^G12C)” value is given as 22.9 ± 0.0 kcal/mol. Also, the “experimental ΔGbind” value on KRAS^G12C [3] is on record as “–6.3 ± 0.1 kcal/mol”.
For `CN1CCCC1COc1nc(N2CCN(C(=O)C3CN3)CC2)c2cc(Cl)c(-c3c(O)cccc3F)cc2n1` (centres unmarked) [4b, Aziridin-2-yl(4-(6-chloro-7-(2-fluoro-6-hydroxyphenyl)-2-((1-methylpyrrolidin-2-yl)methoxy)quinazolin-4-yl)piperazin-1-yl)methanone], the IC50 against KRAS^G12C [1] amounted to 84.4 ± 18.9 µM; in the data set with H358, 90 µM; with MiaPaca2, 48.2 µM; in the data set with H1792 it was 30.8 µM. The half-life at 250 μM in data set [2] (buffer) is above 72 h. Also, the “experimental ΔG^#(GSH)” value in data set [2] was above 20.1 kcal/mol. Affinity on KRAS^G12C [3] was put at a Ki of 112 ± 30.1 µM. Further, the kobs at KRAS^G12C [3] (20 μM inhibitor) is 0.00029 ± 0.00018 s⁻¹; at KRAS^G12C [3] (40 μM inhibitor), 0.00044 ± 0.00004 s⁻¹; on KRAS^G12C [3] (80 μM inhibitor), 0.00072 ± 0.00018 s⁻¹; at KRAS^G12C [3] (160 μM inhibitor) it was 0.00104 ± 0.00002 s⁻¹. At KRAS^G12C [3], the “experimental ΔG^# (KRAS^G12C)” value is 21.2 ± 0.1 kcal/mol. The “experimental ΔGbind” value on KRAS^G12C [3] was “–5.4 ± 0.2 kcal/mol”.
On to `C=CC(=O)N1CCN(c2ncnc3c(F)c(-c4c(O)cccc4F)c(Cl)cc23)CC1` [ARS-1620, reference compound], for which the concentration for half-maximal inhibition (IC50) in the data set with H358 was 0.31 µM; in the data set with MiaPaca2 it was 0.14 µM; with H1792, 10.2 µM.
Take `C=CC(=O)N1CCN(c2nc(OC[C@@H]3CCCN3C)nc3c(F)c(-c4nc(N)cc(C)c4C(F)(F)F)c(Cl)cc23)[C@@H](C)C1` [Divarasib]: on KRAS^G12C [4], the kinact/KI is reported as 710,000 M^–1 s^–1.
